pIC50: −log10 of the molar value. Bounds are passed on as bounds.

The assay has as its target T1, RANTES/MIP-1α chemokine receptor (CCR1) in THP-1 cell membranes (Homo sapiens, UniProt P32246).
T1 construct: Membranes were prepared from THP-1 cells (ATCC #TIB202); host or cells: THP-1 cells (membrane preparation)
T1 sequence (P32246 1-355): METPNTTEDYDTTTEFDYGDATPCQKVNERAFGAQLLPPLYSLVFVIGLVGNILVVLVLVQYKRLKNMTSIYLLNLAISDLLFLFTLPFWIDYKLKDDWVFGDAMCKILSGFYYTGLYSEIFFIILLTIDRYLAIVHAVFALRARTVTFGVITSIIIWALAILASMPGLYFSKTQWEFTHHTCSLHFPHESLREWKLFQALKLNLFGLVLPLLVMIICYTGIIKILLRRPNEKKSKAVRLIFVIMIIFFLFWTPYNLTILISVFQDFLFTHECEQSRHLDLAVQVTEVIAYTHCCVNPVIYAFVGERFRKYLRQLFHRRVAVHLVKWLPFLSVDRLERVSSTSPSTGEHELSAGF
Kind of assay: Receptor binding assay: 125I-RANTES or 125I-MIP-1α binding to THP-1 cell membranes. The following applies: inhibitor concentration required for 50% inhibition of specific binding; 125I-RANTES or 125I-MIP-1α as ligand, THP-1 cell membranes; read-out: IC50.
As to `COC(=O)CCN(Cc1ccc(Cl)cc1)C1CCN(CCC=C2c3cc(C(C)(C)O)ccc3OCc3ncccc32)C1` (centres unmarked) [Example 555, 3-[(4-Chloro-benzyl)-(1-{3-[7-(1-hydroxy-1-methyl-ethyl)-11H-10-oxa-1-aza-dibenzo[a,d]cyclohepten-5-ylidene]-propyl}-pyrrolidin-3-yl)-amino]-propionic acid methyl ester], the pIC50 was greater than 6.00.

Turning to `C[C@H]1CN(CCC=C2c3cc(C(C)(C)O)ccc3OCc3ncccc32)CCN1c1ccc(Cl)cc1` [Example 556, 2-(5-{3-[4-(4-Chloro-phenyl)-3-(S)-methyl-piperazin-1-yl]-propylidene}-5,11-dihydro-10-oxa-1-aza-dibenzo[a,d]cyclohepten-7-yl)-propan-2-ol], the pIC50 is greater than 6.00.

Take `C[C@@H]1CN(CCC=C2c3cc(C(C)(C)O)ccc3OCc3ncccc32)CCN1c1ccc(Cl)cc1` [Example 557, 2-(5-{3-[4-(4-Chloro-phenyl)-3-(R)-methyl-piperazin-1-yl]-propylidene}-5,11-dihydro-10-oxa-1-aza-dibenzo[a,d]cyclohepten-7-yl)-propan-2-ol]: the pIC50 is greater than 6.00.

In the case of `COC(=O)CC1CN(CCC=C2c3cc(C(C)(C)O)ccc3OCc3ncccc32)CCN1c1ccc(Cl)cc1` (centres unmarked) [Example 558, (1-(4-Chloro-phenyl)-4-{3-[7-(1-hydroxy-1-methyl-ethyl)-11H-10-oxa-1-aza-dibenzo[a,d]cyclohepten-5-ylidene]-propyl}-piperazin-2-yl)-acetic acid methyl ester], the pIC50 was greater than 5.00.

Consider `CC1(C)CN(CCC=C2c3cc(OCCN4CCOCC4)ccc3OCc3ncccc32)CCC1(O)c1ccc(Cl)cc1` (centres unmarked) [Example 559, 4-(4-Chloro-phenyl)-3,3-dimethyl-1-{3-[7-(2-morpholin-4-yl-ethoxy)-11H-10-oxa-1-aza-dibenzo[a,d]cyclohepten-5-ylidene]-propyl}-piperidin-4-ol], for which the pIC50 is greater than 6.00.

In the case of `CC(=O)N(Cc1ccc(Cl)cc1)C1CCN(CCC=C2c3cc(C(C)(C)O)ccc3OCc3ncccc32)C1` (centres unmarked) [Example 561, N-(4-Chloro-benzyl)-N-(1-{3-[7-(1-hydroxy-1-methyl-ethyl)-11H-10-oxa-1-aza-dibenzo[a,d]cyclohepten-5-ylidene]-propyl}-pyrrolidin-3-yl)-acetamide], the pIC50 was greater than 5.00.

Regarding `CC(C)C(=O)N(Cc1ccc(Cl)cc1)C1CCN(CCC=C2c3cc(C(C)(C)O)ccc3OCc3ncccc32)C1` (centres unmarked) [Example 562, N-(4-Chloro-benzyl)-N-(1-{3-[7-(1-hydroxy-1-methyl-ethyl)-11H-10-oxa-1-aza-dibenzo[a,d]cyclohepten-5-ylidene]-propyl}-pyrrolidin-3-yl)-isobutyramide], the pIC50 was greater than 5.00.

Take `CCC(=O)N(Cc1ccc(Cl)cc1)C1CCN(CCC=C2c3cc(C(C)(C)O)ccc3OCc3ncccc32)C1` (centres unmarked) [Example 563, N-(4-Chloro-benzyl)-N-(1-{3-[7-(1-hydroxy-1-methyl-ethyl)-11H-10-oxa-1-aza-dibenzo[a,d]cyclohepten-5-ylidene]-propyl}-pyrrolidin-3-yl)-propionamide]: the pIC50 was greater than 5.00.

Consider `CC(C)(O)c1ccc2c(c1)C(=CCCN1CCC(N(Cc3ccc(Cl)cc3)C(=O)C3CCCC3)C1)c1cccnc1CO2` (centres unmarked) [Example 564, Cyclopentanecarboxylic acid (4-chloro-benzyl)-(1-{3-[7-(1-hydroxy-1-methyl-ethyl)-11H-10-oxa-1-aza-dibenzo[a,d]cyclohepten-5-ylidene]-propyl}-pyrrolidin-3-yl)-amide], for which the pIC50 is greater than 5.00.

In the case of `CC(C)(O)c1ccc2c(c1)C(=CCCN1CCC(N(Cc3ccc(Cl)cc3)C(=O)C3CCCCC3)C1)c1cccnc1CO2` (centres unmarked) [Example 565, Cyclohexanecarboxylic acid (4-chloro-benzyl)-(1-{3-[7-(1-hydroxy-1-methyl-ethyl)-11H-10-oxa-1-aza-dibenzo[a,d]cyclohepten-5-ylidene]-propyl}-pyrrolidin-3-yl)-amide], the pIC50 is greater than 5.00.

Consider `CCCCC(CC)C(=O)N(Cc1ccc(Cl)cc1)C1CCN(CCC=C2c3cc(C(C)(C)O)ccc3OCc3ncccc32)C1` (centres unmarked) [Example 566, 2-Ethyl-hexanoic acid (4-chloro-benzyl)-(1-{3-[7-(1-hydroxy-1-methyl-ethyl)-11H-10-oxa-1-aza-dibenzo[a,d]cyclohepten-5-ylidene]-propyl}-pyrrolidin-3-yl)-amide], for which the pIC50 was greater than 4.70.

With `CC(C)NC(=O)N(Cc1ccc(Cl)cc1)C1CCN(CCC=C2c3cc(C(C)(C)O)ccc3OCc3ncccc32)C1` (centres unmarked) [Example 567, 1-(4-Chloro-benzyl)-1-(1-{3-[7-(1-hydroxy-1-methyl-ethyl)-11H-10-oxa-1-aza-dibenzo[a,d]cyclohepten-5-ylidene]-propyl}-pyrrolidin-3-yl)-3-isopropyl-urea], the pIC50 is greater than 6.00.

On to `CC(C)(O)c1ccc2c(c1)C(=CCCN1CCC(N(Cc3ccc(Cl)cc3)C(=O)NC3CCCCC3)C1)c1cccnc1CO2` (centres unmarked) [Example 568, 1-(4-Chloro-benzyl)-3-cyclohexyl-1-(1-{3-[7-(1-hydroxy-1-methyl-ethyl)-11H-10-oxa-1-aza-dibenzo[a,d]cyclohepten-5-ylidene]-propyl}-pyrrolidin-3-yl)-urea], for which the pIC50 is greater than 6.00.

In the case of `CCNC(=O)N(Cc1ccc(Cl)cc1)C1CCN(CCC=C2c3cc(C(C)(C)O)ccc3OCc3ncccc32)C1` (centres unmarked) [Example 569, 1-(4-Chloro-benzyl)-3-ethyl-1-(1-{3-[7-(1-hydroxy-1-methyl-ethyl)-11H-10-oxa-1-aza-dibenzo[a,d]cyclohepten-5-ylidene]-propyl}-pyrrolidin-3-yl)-urea], the pIC50 was greater than 6.00.

With `CC(C)(C)CC(C)(C)NC(=O)N(Cc1ccc(Cl)cc1)C1CCN(CCC=C2c3cc(C(C)(C)O)ccc3OCc3ncccc32)C1` (centres unmarked) [Example 570, 1-(4-Chloro-benzyl)-1-(1-{3-[7-(1-hydroxy-1-methyl-ethyl)-11H-10-oxa-1-aza-dibenzo[a,d]cyclohepten-5-ylidene]-propyl}-pyrrolidin-3-yl)-3-(1,1,3,3-tetramethyl-butyl)-urea], the pIC50 was greater than 5.00.

`CC(C)(O)c1ccc2c(c1)C(=CCCN1CCC(N(Cc3ccc(Cl)cc3)S(C)(=O)=O)C1)c1cccnc1CO2` (centres unmarked) [Example 571, N-(4-Chloro-benzyl)-N-(1-{3-[7-(1-hydroxy-1-methyl-ethyl)-11H-10-oxa-1-aza-dibenzo[a,d]cyclohepten-5-ylidene]-propyl}-pyrrolidin-3-yl)-methanesulfonamide]: the pIC50 is greater than 5.00.

With “Methyl 1-[3-(5,11-dihydro-7-methoxy[1]benzoxepino[2,3-b]pyridin-5-ylidene)propyl]-4-phenylpiperidin-4-carboxylate [Example 188]”, the pIC50 is less than 5.00.

The record behind these values is US8653096B2, “Chemokine receptor antagonists and methods of use thereof” (Millennium Pharmaceuticals, Inc., priority 2001, dated 2014).
